We go through 20 molecules from patent US20230293599A1, “BACTERIAL COMPOSITIONS WITH ANTI-INFLAMMATORY ACTIVITY” (Universiteit Gent, priority 2020, published 2023).

The subject of one assay is P. aeruginosa. Kind of assay: Biolog Phenotype Microarray PM1-2 growth on carbon sources. The conditions noted are these: for growth of P. aeruginosa on the carbon source (in words): AUC lower than 50 = not supporting growth. Format: cell-based, Pseudomonas aeruginosa. On the procedure:
(§1) Using Phenotype Microarray (PM) panels (Biolog), the influence of 190 carbon sources on the growth of the potential probiotic species R. mucilaginosa, R. dentocariosa, R. gilardii, G. haemolysans, and common respiratory pathogens P. aeruginosa, and S. aureus was determined. PM1 and PM2 panels (Biolog) were inoculated according to the manufacturer's instructions. Growth curves were generated for 35 hours by measuring the absorbance at 590 nm using an EnVision (Perkin Elmer) plate reader.

The subject of another assay is R. dentocariosa. Described as above. Format: cell-based, Rothia dentocariosa. The conditions noted are these: for growth of R. dentocariosa on the carbon source (in words): AUC lower than 50 = not supporting growth. On the procedure:
as §1

The subject of another assay is S. aureus. The assay is classed as cell-based, Staphylococcus aureus. On the procedure:
as §1

In another assay the test system is R. mucilaginosa. Kind of assay: Biolog Phenotype Microarray PM1-2 growth on carbon sources. The conditions noted are these: for growth of R. mucilaginosa on the carbon source (in words): AUC lower than 50 = not supporting growth. Format: cell-based, Rothia mucilaginosa. As for the experimental part: as §1
Another assay relates to G. haemolysans. The assay is described as above. Format: cell-based, Gemella haemolysans. The conditions noted are these: 35 hours, absorbance 590 nm, n = 1; cells without values AUC < 50. On the procedure: as §1
A further assay relates to R. gilardii. The assay is described as above. Format: cell-based, Roseomonas gilardii. On the procedure: as §1
The mark [1] stands for this setting: 35 hours, absorbance 590 nm, n = 1, cells without values AUC < 50.

Read-outs that look alike come from different tables or passages of the source. Residues, ends and D or L forms follow the SMILES beside them.

`O=P(O)(O)OCC(O)CO` (racemic) [D,L-α-Glycerol-Phosphate]: in the assay on P. aeruginosa (setting [1]), the “AUC of growth curve, P. aeruginosa” value worked out at 114.5. The “growth of P. aeruginosa on the carbon source (in words)” value (“growth of P. aeruginosa” for short) in the assay with P. aeruginosa was “not or only minimally supporting growth”. In addition, the “AUC of growth curve, R. dentocariosa” value with R. dentocariosa (setting [1]) worked out at 271.8. For the same molecule, in the assay on R. dentocariosa, the “growth of R. dentocariosa on the carbon source (in words)” value (from here on “growth of R. dentocariosa”) was “enable growth”. Moreover, the “growth of S. aureus on the carbon source (in words)” value in the assay with S. aureus is reported as “not or only minimally supporting growth”. Besides, the “AUC of growth curve, R. mucilaginosa” value in the assay with R. mucilaginosa (setting [1]) was determined as 247.7. Besides, the “growth of R. mucilaginosa on the carbon source (in words)” value (“growth of R. mucilaginosa” below) with R. mucilaginosa is “enable growth”.
For `CC(O)C(C)O` (stereo not shown) [2,3-Butanediol], the “AUC of growth curve, S. aureus” value in the assay with S. aureus was 147.2. The “AUC of growth curve, G. haemolysans” value with G. haemolysans is 145.4.
For `CC(=O)CC(=O)O` [Acetoacetic Acid], in the assay with P. aeruginosa (setting [1]), the “AUC of growth curve, P. aeruginosa” value was found to be 301.3. Also, the “AUC of growth curve, R. dentocariosa” value in the assay with R. dentocariosa (setting [1]) is listed as 229.8. The “AUC of growth curve, S. aureus” value in the assay on S. aureus was 928.3. For the same molecule, the “AUC of growth curve, R. gilardii” value in the assay on R. gilardii (setting [1]) came to 172.4. For the same molecule, the “AUC of growth curve, R. mucilaginosa” value in the assay with R. mucilaginosa (setting [1]) was 301.4.
On the same counts, the results for `O=C[C@H](O)[C@@H](O)[C@@H](O)[C@H](O)CO` [D-Galactose] are 720.0, 533.6, 834.0, 186.6 and 101.1.
`O=C(CO)[C@H](O)[C@H](O)[C@H](O)CO` [D-Psicose]: the “AUC of growth curve, P. aeruginosa” value with P. aeruginosa worked out at 771.3. The “AUC of growth curve, R. dentocariosa” value in the assay on R. dentocariosa came to 428.2. Besides, the “AUC of growth curve, S. aureus” value in the assay on S. aureus worked out at 698.5. Further, the “AUC of growth curve, R. gilardii” value with R. gilardii is 86.7. Further, the “AUC of growth curve, R. mucilaginosa” value in the assay with R. mucilaginosa came to 436.4.
`OC[C@H]1O[C@H](O[C@H]2O[C@H](CO)[C@@H](O)[C@H](O)[C@H]2O)[C@H](O)[C@@H](O)[C@@H]1O` [D-Trehalose]: in the assay on P. aeruginosa, the “growth of P. aeruginosa” value is on record as “did not support growth”. The “AUC of growth curve, R. dentocariosa” value in the assay with R. dentocariosa (setting [1]) came out at 937.7. For the same molecule, the “growth of R. dentocariosa” value in the assay with R. dentocariosa is on record as “allowed growth”. In addition, in the assay on S. aureus, the “AUC of growth curve, S. aureus” value was found to be 852.9. For the same molecule, the “AUC of growth curve, R. mucilaginosa” value in the assay on R. mucilaginosa (setting [1]) came out at 572.3. Moreover, in the assay with R. mucilaginosa, the “growth of R. mucilaginosa” value is “allowed growth”.
With `OCC(O)CO` [Glycerol], the “AUC of growth curve, P. aeruginosa” value with P. aeruginosa (setting [1]) worked out at 78.3. Further, the “growth of P. aeruginosa” value in the assay on P. aeruginosa is listed as “did not support growth”. For the same molecule, in the assay with R. dentocariosa (setting [1]), the “AUC of growth curve, R. dentocariosa” value was 998.9. In addition, in the assay with R. dentocariosa, the “growth of R. dentocariosa” value is listed as “allowed growth”. Also, in the assay on S. aureus, the “AUC of growth curve, S. aureus” value was 802.4. Further, the “AUC of growth curve, R. gilardii” value in the assay on R. gilardii (setting [1]) worked out at 59.0. In the assay with R. mucilaginosa (setting [1]), the “AUC of growth curve, R. mucilaginosa” value is reported as 786.8. Also, the “growth of R. mucilaginosa” value in the assay with R. mucilaginosa is listed as “allowed growth”.
For the molecule `NCC(=O)N[C@@H](CCC(=O)O)C(=O)O` [Glycyl-L-Glutamic Acid] (H-Gly-Glu-OH), the “AUC of growth curve, P. aeruginosa” value with P. aeruginosa worked out at 285.6. The “AUC of growth curve, S. aureus” value in the assay on S. aureus came to 871.5. Further, the “AUC of growth curve, R. gilardii” value in the assay with R. gilardii is given as 61.5. For the same molecule, the “AUC of growth curve, R. mucilaginosa” value in the assay on R. mucilaginosa was 140.3.
As for `O=CC(=O)O` [Glyoxylic Acid], the “AUC of growth curve, R. dentocariosa” value in the assay on R. dentocariosa (setting [1]) is 53.5. Besides, the “AUC of growth curve, R. gilardii” value with R. gilardii (setting [1]) came to 85.2. The “AUC of growth curve, R. mucilaginosa” value with R. mucilaginosa (setting [1]) came to 142.0.
For the molecule `C[C@H](O)C(=O)O` [L-Lactic Acid], in the assay on P. aeruginosa (setting [1]), the “AUC of growth curve, P. aeruginosa” value was 349.6. Moreover, in the assay with R. dentocariosa (setting [1]), the “AUC of growth curve, R. dentocariosa” value is on record as 632.8. In the assay on S. aureus, the “AUC of growth curve, S. aureus” value is reported as 773.2. Further, the “AUC of growth curve, R. gilardii” value with R. gilardii (setting [1]) is 70.3. The “AUC of growth curve, R. mucilaginosa” value in the assay with R. mucilaginosa (setting [1]) amounted to 292.5.
Consider `N[C@@H](Cc1ccccc1)C(=O)O` [L-Phenylalanine], for which, in the assay with S. aureus, the “AUC of growth curve, S. aureus” value stood at 167.3. The “AUC of growth curve, G. haemolysans” value in the assay with G. haemolysans is recorded as 64.4.
As for `O=C(O)[C@@H]1CCCN1` [L-Proline], in the assay on P. aeruginosa (setting [1]), the “AUC of growth curve, P. aeruginosa” value is 425.7. For the same molecule, the “AUC of growth curve, R. dentocariosa” value in the assay with R. dentocariosa (setting [1]) is 1049.5. The “AUC of growth curve, S. aureus” value in the assay on S. aureus stood at 567.9. In addition, the “AUC of growth curve, R. mucilaginosa” value in the assay with R. mucilaginosa (setting [1]) is 268.5.
Turning to `OC[C@H]1O[C@H](O[C@H]2[C@H](O)[C@@H](O)[C@H](O)O[C@@H]2CO)[C@H](O)[C@@H](O)[C@@H]1O` [Maltose], the “growth of P. aeruginosa” value in the assay with P. aeruginosa is listed as “did not support growth”. Also, the “AUC of growth curve, R. dentocariosa” value in the assay on R. dentocariosa (setting [1]) was 977.1. In addition, the “growth of R. dentocariosa” value in the assay with R. dentocariosa is “allowed growth”. In addition, the “AUC of growth curve, S. aureus” value with S. aureus is 867.8. Besides, in the assay with R. mucilaginosa (setting [1]), the “AUC of growth curve, R. mucilaginosa” value was determined as 1052.6. Moreover, the “growth of R. mucilaginosa” value with R. mucilaginosa was “allowed growth”.
For `OC[C@H]1O[C@H](OC[C@H]2OC(O)(CO)[C@@H](O)[C@@H]2O)[C@H](O)[C@@H](O)[C@@H]1O` (stereo partly shown) [Palatinose], in the assay with P. aeruginosa (setting [1]), the “AUC of growth curve, P. aeruginosa” value worked out at 514.7. Also, in the assay with R. dentocariosa (setting [1]), the “AUC of growth curve, R. dentocariosa” value is reported as 197.4. Besides, in the assay on S. aureus, the “AUC of growth curve, S. aureus” value is listed as 763.7. Besides, the “AUC of growth curve, R. mucilaginosa” value in the assay with R. mucilaginosa (setting [1]) came out at 129.4.
As for `O=C(O)[C@]1(O)C[C@@H](O)[C@@H](O)[C@H](O)C1` [Quinic Acid], in the assay on P. aeruginosa (setting [1]), the “AUC of growth curve, P. aeruginosa” value amounted to 1197.1. For the same molecule, in the assay with S. aureus, the “AUC of growth curve, S. aureus” value is given as 255.3. Also, the “AUC of growth curve, R. gilardii” value in the assay with R. gilardii (setting [1]) worked out at 92.0. In the assay with R. mucilaginosa (setting [1]), the “AUC of growth curve, R. mucilaginosa” value was determined as 68.3.
In the case of `OCc1ccccc1O[C@@H]1O[C@H](CO)[C@@H](O)[C@H](O)[C@H]1O` [Salicin], in the assay on P. aeruginosa, the “growth of P. aeruginosa” value is “did not support growth”. Further, the “AUC of growth curve, R. dentocariosa” value in the assay with R. dentocariosa (setting [1]) worked out at 222.9. Further, the “growth of R. dentocariosa” value in the assay on R. dentocariosa is on record as “stimulated only the growth”. In addition, in the assay on S. aureus, the “AUC of growth curve, S. aureus” value amounted to 146.2. The “AUC of growth curve, R. mucilaginosa” value with R. mucilaginosa (setting [1]) turned out to be 74.0.
`OC[C@H]1O[C@@](CO)(O[C@H]2O[C@H](CO)[C@@H](O)[C@H](O)[C@H]2O)[C@@H](O)[C@@H]1O` [Sucrose]: the “growth of P. aeruginosa” value in the assay with P. aeruginosa is listed as “did not support growth”. Further, the “growth of R. dentocariosa” value in the assay on R. dentocariosa is “allowed growth”. In addition, in the assay with R. mucilaginosa, the “growth of R. mucilaginosa” value was “allowed growth”.
In the case of `O=C(CO)[C@@H](O[C@H]1O[C@H](CO)[C@@H](O)[C@H](O)[C@H]1O)[C@H](O)[C@H](O)CO` [Turanose], the “growth of P. aeruginosa” value with P. aeruginosa was “did not support growth”. In addition, in the assay with R. dentocariosa (setting [1]), the “AUC of growth curve, R. dentocariosa” value came out at 296.1. The “growth of R. dentocariosa” value with R. dentocariosa was “stimulated only the growth”. The “AUC of growth curve, S. aureus” value in the assay on S. aureus turned out to be 1146.9. Moreover, the “AUC of growth curve, R. mucilaginosa” value in the assay with R. mucilaginosa (setting [1]) was 91.9.
As for `CO[C@@H]1O[C@H](CO)[C@@H](O)[C@H](O)[C@H]1O` [β-Methyl-D-Glucoside], in the assay with P. aeruginosa, the “growth of P. aeruginosa” value is given as “did not support growth”. For the same molecule, the “AUC of growth curve, R. dentocariosa” value in the assay with R. dentocariosa (setting [1]) is 405.7. The “growth of R. dentocariosa” value in the assay with R. dentocariosa is recorded as “allowed growth”. In addition, the “AUC of growth curve, S. aureus” value with S. aureus is given as 779.9. Besides, the “AUC of growth curve, R. gilardii” value with R. gilardii (setting [1]) turned out to be 56.3. Also, the “AUC of growth curve, R. mucilaginosa” value with R. mucilaginosa (setting [1]) was 599.6. Further, the “growth of R. mucilaginosa” value in the assay with R. mucilaginosa is listed as “allowed growth”.
In the case of Maltotriose, in the assay with P. aeruginosa, the “growth of P. aeruginosa” value is “did not support growth”. In the assay with R. dentocariosa (setting [1]), the “AUC of growth curve, R. dentocariosa” value is listed as 1276.1. In addition, the “growth of R. dentocariosa” value in the assay on R. dentocariosa was “allowed growth”. In the assay on S. aureus, the “AUC of growth curve, S. aureus” value was determined as 943.9. For the same molecule, the “AUC of growth curve, R. gilardii” value in the assay with R. gilardii (setting [1]) was 54.2. The “AUC of growth curve, R. mucilaginosa” value with R. mucilaginosa (setting [1]) is listed as 1074.7. In the assay on R. mucilaginosa, the “growth of R. mucilaginosa” value is “allowed growth”.
